Each structure is given as a SMILES string.

This note sets out measurements from patent publication US20120165306A1, “PYRAZINYLPYRIDINES USEFUL FOR THE TREATMENT OF PROLIFERATIVE DISEASES” (priority 2009, published 2012).

In the experiment the target is Cdk9/cyclinT1 (Homo sapiens, UniProt P50750). Nature of the experiment: Cdk9/cyclinT1 kinase assay (IMAP or Alpha Screen protocol).
Cdk9/cyclinT1, sequence (P50750 whole entry): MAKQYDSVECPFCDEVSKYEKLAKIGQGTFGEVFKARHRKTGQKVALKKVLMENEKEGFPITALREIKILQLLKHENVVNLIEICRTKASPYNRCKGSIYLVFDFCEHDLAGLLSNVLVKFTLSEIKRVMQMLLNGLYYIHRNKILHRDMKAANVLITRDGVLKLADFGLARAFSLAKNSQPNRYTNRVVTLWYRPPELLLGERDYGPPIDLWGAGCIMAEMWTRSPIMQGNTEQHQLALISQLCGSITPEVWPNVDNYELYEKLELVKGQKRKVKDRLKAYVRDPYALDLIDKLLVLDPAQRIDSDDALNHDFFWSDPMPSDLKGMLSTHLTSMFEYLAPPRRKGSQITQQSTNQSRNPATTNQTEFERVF
Cdk9/cyclinT1, sequence (O60563 whole entry partner): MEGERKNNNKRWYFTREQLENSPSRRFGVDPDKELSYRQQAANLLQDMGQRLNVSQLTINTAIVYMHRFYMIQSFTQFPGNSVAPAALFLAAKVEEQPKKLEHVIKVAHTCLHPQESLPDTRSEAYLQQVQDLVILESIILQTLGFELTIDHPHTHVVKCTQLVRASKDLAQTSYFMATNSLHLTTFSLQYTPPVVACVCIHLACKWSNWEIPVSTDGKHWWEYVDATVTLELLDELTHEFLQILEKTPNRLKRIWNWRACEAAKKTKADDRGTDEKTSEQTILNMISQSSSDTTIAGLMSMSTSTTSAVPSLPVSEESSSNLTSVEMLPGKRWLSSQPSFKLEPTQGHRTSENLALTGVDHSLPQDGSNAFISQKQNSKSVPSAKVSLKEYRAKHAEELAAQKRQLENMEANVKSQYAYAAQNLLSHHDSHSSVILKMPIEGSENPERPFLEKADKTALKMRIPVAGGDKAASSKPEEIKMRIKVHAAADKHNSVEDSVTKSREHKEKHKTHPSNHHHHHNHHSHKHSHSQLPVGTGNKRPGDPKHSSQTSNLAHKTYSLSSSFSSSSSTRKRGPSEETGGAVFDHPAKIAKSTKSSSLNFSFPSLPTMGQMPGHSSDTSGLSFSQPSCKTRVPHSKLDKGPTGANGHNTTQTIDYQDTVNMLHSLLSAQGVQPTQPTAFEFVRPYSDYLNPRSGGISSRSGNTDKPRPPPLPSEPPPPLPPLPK

Excerpt: Cdk9/cyclinT1 IMAP Protocol
Fluorescence polarization (FP) is used for detection.
Cdk9/cyclinT1 Alpha Screen Protocol

`O=C(Nc1cc(-c2cnccn2)c(Cl)cn1)[C@@H]1CCCNC1` [Example 1, (R)-Piperidine-3-carboxylic acid (5-chloro-4-pyrazin-2-yl-pyridin-2-yl)-amide]: the IC50 (usually the concentration that gives 50% inhibition) was determined as 2100 nM. The compound `CC(C)(C)OC(=O)N1CCC[C@@H](C(=O)Nc2cc(-c3cncc(NCC4CCOCC4)n3)c(Cl)cn2)C1` [Example 2, (R)-3-(5-Chloro-4-{6-[(tetrahydro-pyran-4-ylmethyl)-amino]-pyrazin-2-yl}-pyridin-2-ylcarbamoyl)-piperidine-1-carboxylic acid tert-butyl ester] displayed a half-maximal inhibitory concentration (IC50) of 16 nM.

Consider `COCCN1CCC[C@@H](C(=O)Nc2cc(-c3cncc(NCC4CCOCC4)n3)c(Cl)cn2)C1` [Example 3], for which the IC50 was found to be 316 nM. Consider `CS(=O)(=O)N1CCC[C@@H](C(=O)Nc2cc(-c3cncc(NCC4CCOCC4)n3)c(Cl)cn2)C1` [Example 4, (R)-1-Methanesulfonyl-piperidine-3-carboxylic acid (5-chloro-4-{6-[(tetrahydro-pyran-4-ylmethyl)-amino]-pyrazin-2-yl}-pyridin-2-yl)-amide], for which the IC50 is 179 nM. The result for `CC(=O)N1CCC[C@@H](C(=O)Nc2cc(-c3cncc(NCC4CCOCC4)n3)c(Cl)cn2)C1` [Example 5, (R)-1-Acetyl-piperidine-3-carboxylic acid (5-chloro-4-{6-[(tetrahydro-pyran-4-ylmethyl)-amino]-pyrazin-2-yl}-pyridin-2-yl)-amide] reads 268 nM. On to `CS(=O)(=O)N1CCC[C@H](C(=O)Nc2cc(-c3cncc(NCC4CCOCC4)n3)c(Cl)cn2)C1` [Example 6], for which the IC50 was < 8 nM. Compound `CCN1CCC[C@@H](C(=O)Nc2cc(-c3cncc(NCC4CCOCC4)n3)c(Cl)cn2)C1` [Example 7, (R)-1-Ethyl-piperidine-3-carboxylic acid (5-chloro-4-{6-[(tetrahydro-pyran-4-ylmethyl)-amino]-pyrazin-2-yl}-pyridin-2-yl)-amide] yielded an IC50 of 229 nM. The compound `O=C(Nc1cc(-c2cncc(NCC3CCOCC3)n2)c(Cl)cn1)[C@H]1CCCNC1` [Example 8, (S)-Piperidine-3-carboxylic acid (5-chloro-4-{6-[(tetrahydro-pyran-4-ylmethyl)-amino]-pyrazin-2-yl}-pyridin-2-yl)-amide] registered an IC50 of 28 nM. In the case of `O=C(Nc1cc(-c2cncc(NCC3CCOCC3)n2)c(Cl)cn1)[C@@H]1CCCNC1` [Example 9, (R)-Piperidine-3-carboxylic acid (5-chloro-4-{6-[(tetrahydro-pyran-4-ylmethyl)-amino]-pyrazin-2-yl}-pyridin-2-yl)-amide], the IC50 was < 8 nM.

As to `COCC(=O)Nc1cc(-c2cncc(NCC3CCOCC3)n2)c(Cl)cn1` [Example 10, N-(5-Chloro-4-{6-[(tetrahydro-pyran-4-ylmethyl)-amino]-pyrazin-2-yl}-pyridin-2-yl)-2-methoxy-acetamide], the IC50 was found to be 124 nM. The compound `CC(=O)Nc1cc(-c2cncc(NCC3CCOCC3)n2)c(Cl)cn1` [Example 11, N-(5-Chloro-4-{6-[(tetrahydro-pyran-4-ylmethyl)-amino]-pyrazin-2-yl}-pyridin-2-yl)-acetamide] gave an IC50 of 29 nM.

For the compound `CC(C)C(=O)Nc1cc(-c2cncc(NCC3CCOCC3)n2)c(Cl)cn1` [Example 12, N-(5-Chloro-4-{6-[(tetrahydro-pyran-4-ylmethyl)-amino]-pyrazin-2-yl}-pyridin-2-yl)-isobutyramide], the IC50 was < 8 nM. For `O=C(Nc1cc(-c2cncc(NCC3CCOCC3)n2)c(Cl)cn1)C1CCCC1` [Example 13, Cyclopentanecarboxylic acid (5-chloro-4-{6-[(tetrahydro-pyran-4-ylmethyl)-amino]-pyrazin-2-yl}-pyridin-2-yl)-amide], inhibition was half-maximal at 15 nM (IC50). As for `O=C(Nc1cc(-c2cncc(NCc3ccccc3F)n2)c(Cl)cn1)[C@@H]1CCCNC1` [Example 14, (R)-Piperidine-3-carboxylic acid {5-chloro-4-[6-(2-fluoro-benzylamino)-pyrazin-2-yl]-pyridin-2-yl}-amide], the IC50 was < 8 nM.

For `O=C(Nc1cc(-c2cncc(NCC3CCOCC3)n2)c(Cl)cn1)C1CCOCC1` [Example 15, Tetrahydro-pyran-4-carboxylic acid (5-chloro-4-{6-[(tetrahydro-pyran-4-ylmethyl)-amino]-pyrazin-2-yl}-pyridin-2-yl)-amide], the IC50 was < 8 nM. `O=C(Nc1cc(-c2cncc(NCc3cncc(F)c3)n2)c(Cl)cn1)[C@@H]1CCCNC1` [Example 16, (R)-Piperidine-3-carboxylic acid (5-chloro-4-{6-[(5-fluoro-pyridin-3-ylmethyl)-amino]-pyrazin-2-yl}-pyridin-2-yl)-amide]: the IC50 was < 8 nM. For `O=C(Nc1cc(-c2cncc(NCc3ccccn3)n2)c(Cl)cn1)[C@@H]1CCCNC1` [Example 17, (R)-Piperidine-3-carboxylic acid (5-chloro-4-{6-[(pyridin-2-ylmethyl)-amino]-pyrazin-2-yl}-pyridin-2-yl)-amide], the IC50 stood at 121 nM.

Consider `O=C(Nc1cc(-c2cncc(NCc3cccc(OC(F)F)c3)n2)c(Cl)cn1)[C@@H]1CCCNC1` [Example 18, (R)-Piperidine-3-carboxylic acid {5-chloro-4-[6-(3-difluoromethoxy-benzylamino)-pyrazin-2-yl]-pyridin-2-yl}-amide], for which the IC50 is < 8 nM.

For `CC(=O)NCCNc1cncc(-c2cc(NC(=O)[C@@H]3CCCNC3)ncc2Cl)n1` [Example 19, (R)-Piperidine-3-carboxylic acid {4-[6-(2-acetylamino-ethylamino)-pyrazin-2-yl]-5-chloro-pyridin-2-yl}-amide], 153 nM corresponded to half-maximal inhibition (IC50). For the compound `O=C(Nc1cc(-c2cncc(NCc3ccc(F)cc3)n2)c(Cl)cn1)[C@@H]1CCCNC1` [Example 20, (R)-Piperidine-3-carboxylic acid {5-chloro-4-[6-(4-fluoro-benzylamino)-pyrazin-2-yl]-pyridin-2-yl}-amide], the IC50 was < 8 nM. In the case of `O=C(Nc1cc(-c2cncc(NCC3CCOCC3)n2)c(Cl)cn1)C1CNCCO1` (stereo not drawn) [Example 21, Morpholine-2-carboxylic acid (5-chloro-4-{6-[(tetrahydro-pyran-4-ylmethyl)-amino]-pyrazin-2-yl}-pyridin-2-yl)-amide], the midpoint of inhibition, the IC50, lay at 12.8 nM. The result for `O=C(Nc1cc(-c2cncc(NCC3CCOCC3)n2)c(Cl)cn1)C1CCNCC1` [Example 22, Piperidine-4-carboxylic acid (5-chloro-4-{6-[(tetrahydro-pyran-4-ylmethyl)-amino]-pyrazin-2-yl}-pyridin-2-yl)-amide] reads 8 nM. On to `O=C(Nc1cc(-c2cncc(NCC3CCOCC3)n2)c(Cl)cn1)C1CCCOC1` (stereo not drawn) [Example 23, Tetrahydro-pyran-3-carboxylic acid (5-chloro-4-{6-[(tetrahydro-pyran-4-ylmethyl)-amino]-pyrazin-2-yl}-pyridin-2-yl)-amide], for which the IC50 turned out to be 9 nM. `Cc1ncc(NCC2CCOCC2)nc1-c1cc(NC(=O)[C@@H]2CCCNC2)ncc1Cl` [Example 24, (R)-Piperidine-3-carboxylic acid (5-chloro-4-{3-methyl-6-[(tetrahydro-pyran-4-ylmethyl)-amino]-pyrazin-2-yl}-pyridin-2-yl)-amide]: the 50% inhibitory concentration (IC50) was < 8 nM.

`O=C(Nc1cc(-c2cncc(NCc3cccnc3)n2)c(Cl)cn1)[C@@H]1CCCNC1` [Example 25, (R)-Piperidine-3-carboxylic acid (5-chloro-4-{6-[(pyridin-3-ylmethyl)-amino]-pyrazin-2-yl}-pyridin-2-yl)-amide] registered an IC50 of 12 nM. For the compound `O=C(Nc1cc(-c2cncc(NCC3CCCOC3)n2)c(Cl)cn1)[C@@H]1CCCNC1` (stereo partly drawn) [Example 26, (R)-Piperidine-3-carboxylic acid (5-chloro-4-{6-[(tetrahydro-pyran-3-ylmethyl)-amino]-pyrazin-2-yl}-pyridin-2-yl)-amide], the IC50 was < 8 nM. The result for `O=C(Nc1cc(-c2cncc(NC3CCOCC3)n2)c(Cl)cn1)[C@@H]1CCCNC1` [Example 27, (R)-Piperidine-3-carboxylic acid {5-chloro-4-[6-(tetrahydro-pyran-4-ylamino)-pyrazin-2-yl]-pyridin-2-yl}-amide] reads 48 nM; that for `C[C@@H](O)CNc1cncc(-c2cc(NC(=O)[C@@H]3CCCNC3)ncc2Cl)n1` [Example 28, (R)-Piperidine-3-carboxylic acid {5-chloro-4-[6-((R)-2-hydroxy-propylamino)-pyrazin-2-yl]-pyridin-2-yl}-amide], 15 nM; that for `C[C@H](O)CNc1cncc(-c2cc(NC(=O)[C@@H]3CCCNC3)ncc2Cl)n1` [Example 29, (R)-Piperidine-3-carboxylic acid {5-chloro-4-[6-((S)-2-hydroxy-propylamino)-pyrazin-2-yl]-pyridin-2-yl}-amide], 37 nM. `CN(CC1CCOCC1)c1cncc(-c2cc(NC(=O)[C@@H]3CCCNC3)ncc2Cl)n1` [Example 30, (R)-Piperidine-3-carboxylic acid (5-chloro-4-{6-[methyl-(tetrahydro-pyran-4-ylmethyl)-amino]-pyrazin-2-yl}-pyridin-2-yl)-amide] returned an IC50 of 12 nM. The compound `O=C(Nc1cc(-c2cncc(NC[C@H]3CCCO3)n2)c(Cl)cn1)[C@@H]1CCCNC1` [Example 31, (R)-Piperidine-3-carboxylic acid [5-chloro-4-(6-{[(R)-1-(tetrahydro-furan-2-yl)methyl]-amino}-pyrazin-2-yl)-pyridin-2-yl]-amide] showed an IC50 of 19 nM. For `O=C(Nc1cc(-c2cncc(NCCN3CCCC3=O)n2)c(Cl)cn1)[C@@H]1CCCNC1` [Example 32, (R)-Piperidine-3-carboxylic acid (5-chloro-4-{6-[2-(2-oxo-pyrrolidin-1-yl)-ethylamino]-pyrazin-2-yl}-pyridin-2-yl)-amide], the IC50 turned out to be 20 nM. As for `O=C(Nc1cc(-c2cncc(NC[C@@H]3CCCO3)n2)c(Cl)cn1)[C@@H]1CCCNC1` [Example 33, (R)-Piperidine-3-carboxylic acid [5-chloro-4-(6-{[(S)-1-(tetrahydro-furan-2-yl)methyl]-amino}-pyrazin-2-yl)-pyridin-2-yl]-amide], the IC50 turned out to be 15 nM.
